Data published in patent publication US9175282B2, “Cellobiose 2-epimerase, its preparation and uses” (HAYASHIBARA CO., LTD., priority 2009, dated 2015).
Like-named read-outs stand apart in the source and are kept apart here. Blank lines part the entries; values can stand above or below the molecule they belong to.

Tests used:
cellobiose 2-epimerase = experiment: Effect of metal ions on the epimerase activity; type: biochemical, Caldicellusiruptor saccharolyticus ATCC43494; conditions: for Inhibition of the epimerase activity by metal ion: 1 mM
[1] = tested on: recombinant cellobiose 2-epimerase; experiment: Formation of isomerized saccharides from various saccharides, effect of the amount of enzyme; type: biochemical, Caldicellulosiruptor saccharolyticus ATCC43494; conditions: for Content of isomerized saccharide in the reaction mixture (%): Epilactose / Content of isomerized saccharide in the reaction mixture (%): Lactulose: GC analysis
Protocol: Each of them was dissolved into 20 mM acetate buffer (pH 6.0), admixed with the purified preparation of the recombinant cellobiose 2-epimerase, obtained by the method in Experiment 4-4, and followed the enzyme reaction under the conditions of 10% (w/v) substrate concentration, 60° C. for 72 hours. The amount of enzyme was set to 130 or 500 units/g-substrate when monosaccharide was used as the substrate, and to 1 or 130 units/g-substrate when disaccharide or trisaccharide was used as the substrate. Each reaction mixture was heated at 100° C. for 10 minutes to stop the reaction and subjected to HPLC analysis to determine the contents of isomerized saccharide, on a dry solid basis. The contents of epilactose and lactulose in the reaction mixture obtained using lactose as substrate were determined by GC analysis described in Experiment 1-2.

[2] = tested on: recombinant cellobiose 2-epimerase; experiment: Substrate specificity of cellobiose 2-epimerase by TLC; type: biochemical, Caldicellulosiruptor saccharolyticus ATCC43494; set-up: key to Action: −: No product is detected; ±: Some products are slightly detected; +: Some products are detected; ++: Some products are clearly detected; conditions: for Action: 2% (w/w) substrate, MOPS buffer pH 8.0, 500 units/g-substrate, 60° C., 24 hours, product spot on TLC; for Action of the enzyme on the saccharide: summary of Table 3
Protocol: Substrate specificity of the enzyme was investigated by allowing the purified preparation of the recombinant cellobiose 2-epimerase, obtained by the method of Experiment 4-4, to act on various saccharides. Substrate solutions were prepared by dissolving D-glucose, D-xylose, D-allose, D-ribose, D-galactose, D-fructose, D-mannose, D-psicose, D-tagatose, L-sorbose, L-rhamnose, L-ribose, trehalose, kojibiose, nigerose, isomaltose, neotrehalose, gentiobiose, lactose, sucrose, maltulose, palatinose, maltose, maltotriose, maltotetraose, maltopentaose, maltohexaose, maltoheptaose, cellobiose, cellotriose, cellotetraose, selaginose, isomaltosyl-glucoside, isomaltotriose, panose, isopanose, erlose, maltitol, maltotriitol, methyl-α-glucoside, methyl-β-glucoside, D-glucosamine, D-galactosamine, D-glucuronic acid, N-acetyl-glucosamine, or N-acetyl-galactosamine into MOPS buffer (pH 8.0) to give a final concentration of 2% (w/w) of saccharide and 40 mM buffer.
Then, each of the resulting substrate solutions was further admixed with 500 units/g-substrate, on a dry solid basis, of the purified preparation of recombinant cellobiose 2-epimerase, obtained by the method in Experiment 4-4, and followed by the enzyme reaction at 60° C. for 24 hours. After stopping the reaction by heating the reaction mixture at 100° C. for 10 minutes, each reaction mixture was subjected to TLC analysis under the conditions in Experiment 1-2 to examine the saccharides in each mixture before and after the reaction. The substrate specificity of the enzyme was judged by investigating whether the spot of the reaction product except for the substrate is detected in the TLC chromatogram or not, and the degree of the strength of the visualized spot.

[3] = tested on: recombinant cellobiose 2-epimerase; experiment: Isomerized saccharides formed from monosaccharides (HPLC); type: biochemical, Caldicellulosiruptor saccharolyticus ATCC43494
Protocol: Reaction products formed from D-glucose, D-galactose, and D-mannose by the action of the cellobiose 2-epimerase of the present invention were investigated. D-Glucose, D-galactose, or D-mannose was dissolved into 50 mM acetate buffer (pH 6.0) to give a final concentration of 20% (w/v) to make into a substrate solution. To 0.1 ml of the substrate solution, 130 units/g-solid substrate for D-glucose and D-mannose (0.1 ml as the enzyme solution), or 500 units/g-solid substrate for D-galactose (0.1 ml as the enzyme solution), of the purified preparation of the recombinant cellobiose 2-epimerase, obtained by the method in Experiment 4-4, was admixed; and followed the enzyme reaction at 60° C. for 48 hours.
After the completion of the reaction, reaction mixture was heated at 100° C. for 10 minutes to stop the reaction. Each reaction mixture was subjected to HPLC analysis for determining the product. HPLC analysis of the products in the reaction mixture was carried out under the following conditions for separating monosaccharides.

[4] = ingested in rat; cited from earlier work
[5] = 130 units/g-substrate, 10% (w/v) substrate, pH 6.0, 60° C., 72 hours
[6] = 500 units/g-substrate, 10% (w/v) substrate, pH 6.0, 60° C., 72 hours
[7] = 130 units/g-substrate, pH 6.0, 60° C., 48 hours
[8] = 500 units/g-substrate, pH 6.0, 60° C., 48 hours
[9] = 1 unit/g-substrate, 10% (w/v) substrate, pH 6.0, 60° C., 72 hours

- Relative activity (%) (cellobiose 2-epimerase; metal salt 1 mM, None = 100): 106%
SMILES: [Cl-].[Cl-].[Mg+2] [MgCl2]

SMILES: [Cl][Ni][Cl] [NiCl2]
- Relative activity (%) (cellobiose 2-epimerase; metal salt 1 mM, None = 100): 103%

- Relative activity (%) (cellobiose 2-epimerase; metal salt 1 mM, None = 100): 99%
SMILES: O=C(O)CN(CCN(CC(=O)O)CC(=O)O)CC(=O)O [EDTA]

- Relative activity (%) (cellobiose 2-epimerase; metal salt 1 mM, None = 100): 35%
SMILES: [Cl][Fe][Cl] [FeCl2]

- Relative activity (%) (cellobiose 2-epimerase; metal salt 1 mM, None = 100): 104%
SMILES: [Cl-].[Cl-].[Sr+2] [SrCl2]

- Content of isomerized saccharide in the reaction mixture (%): D-Fructose [1, 5]: 5.0%
- Content of isomerized saccharide in the reaction mixture (%): D-Mannose [1, 5]: 20.9%
- Content of isomerized saccharide in the reaction mixture (%): D-Fructose [1, 6]: 9.2%
- Content of isomerized saccharide in the reaction mixture (%): D-Mannose [1, 6]: 23.3%
- Action [2]: +
- Action of the enzyme on the saccharide [2]: acted on
- Content (%, w/w) of product D-Fructose [3, 7]: 3.8 %, w/w
- Content (%, w/w) of product D-Mannose [3, 7]: 20.6 %, w/w
SMILES: O=C[C@H](O)[C@@H](O)[C@H](O)[C@H](O)CO [D-Glucose]

- Inhibition of the epimerase activity by metal ion (cellobiose 2-epimerase): inhibited
- Relative activity (%) (cellobiose 2-epimerase; metal salt 1 mM, None = 100): 45%
SMILES: [Cl][Al]([Cl])[Cl] [AlCl3]

- Inhibition of the epimerase activity by metal ion (cellobiose 2-epimerase): almost completely inhibited
- Relative activity (%) (cellobiose 2-epimerase; metal salt 1 mM, None = 100): 1%
SMILES: [Cl][Cu][Cl] [CuCl2]

- Relative activity (%) (cellobiose 2-epimerase; metal salt 1 mM, None = 100): 33%
SMILES: [Cl][Fe]([Cl])[Cl] [FeCl3]

- Relative activity (%) (cellobiose 2-epimerase; metal salt 1 mM, None = 100): 107%
SMILES: [Ca+2].[Cl-].[Cl-] [CaCl2]

- Relative activity (%) (cellobiose 2-epimerase; metal salt 1 mM, None = 100): 104%
SMILES: [Cl][Mn][Cl] [MnCl2]

- Content of isomerized saccharide in the reaction mixture (%): D-Tagatose [1, 6]: 9.2%
- Content of isomerized saccharide in the reaction mixture (%): D-Talose [1, 6]: 11.0%
- Action [2]: ±
- Action of the enzyme on the saccharide [2]: slightly acted on
- Action of the enzyme compared with D-glucose and D-mannose [3]: relatively weak
- Content (%, w/w) of product D-Tagatose [3, 8]: 8.4 %, w/w
- Content (%, w/w) of product D-Talose [3, 8]: 10.3 %, w/w
SMILES: O=C[C@H](O)[C@@H](O)[C@@H](O)[C@H](O)CO [D-Galactose]

- Content of isomerized saccharide in the reaction mixture (%): Epilactose [1, 9]: 32.0%
- Content of isomerized saccharide in the reaction mixture (%): Lactulose [1, 9]: 0.0%
- Content of isomerized saccharide in the reaction mixture (%): Epilactose [1, 5]: 12.8%
- Content of isomerized saccharide in the reaction mixture (%): Lactulose [1, 5]: 57.5%
- Action of the enzyme on the substrate ([1]; summary of Table 5): relatively specifically acted
- Action [2]: ++
- Action of the enzyme on the saccharide [2]: relatively strong specificity
SMILES: OC[C@H]1O[C@@H](O[C@H]2[C@H](O)[C@@H](O)C(O)O[C@@H]2CO)[C@H](O)[C@@H](O)[C@H]1O (stereo partly drawn) [Lactose]

SMILES: [Ba+2].[Cl-].[Cl-] [BaCl2]
- Relative activity (%) (cellobiose 2-epimerase; metal salt 1 mM, None = 100): 108%

SMILES: [Cl][Hg][Cl] [HgCl2]
- Inhibition of the epimerase activity by metal ion (cellobiose 2-epimerase): almost completely inhibited
- Relative activity (%) (cellobiose 2-epimerase; metal salt 1 mM, None = 100): 1%

SMILES: O=C(CO)[C@@H](O)[C@H](O)[C@H](O)CO [D-Fructose]
- Content of isomerized saccharide in the reaction mixture (%): D-Glucose [1, 5]: 2.2%
- Content of isomerized saccharide in the reaction mixture (%): D-Mannose [1, 5]: 2.2%
- Action [2]: ±
- Action of the enzyme on the saccharide [2]: slightly acted on

- Relative activity (%) (cellobiose 2-epimerase; metal salt 1 mM, None = 100): 93%
SMILES: NC(CO)(CO)CO [Tris]

SMILES: [Cl][Pb][Cl] [PbCl2]
- Inhibition of the epimerase activity by metal ion (cellobiose 2-epimerase): inhibited
- Relative activity (%) (cellobiose 2-epimerase; metal salt 1 mM, None = 100): 36%

- Content of isomerized saccharide in the reaction mixture (%): D-Fructose [1, 5]: 6.6%
- Content of isomerized saccharide in the reaction mixture (%): D-Glucose [1, 5]: 45.8%
- Action [2]: +
- Action of the enzyme on the saccharide [2]: acted on
- Content (%, w/w) of product D-Fructose [3, 7]: 5.1 %, w/w
- Content (%, w/w) of product D-Glucose [3, 7]: 41.8 %, w/w
SMILES: O=C[C@@H](O)[C@@H](O)[C@H](O)[C@H](O)CO [D-Mannose]

- Inhibition of the epimerase activity by metal ion (cellobiose 2-epimerase): almost completely inhibited
- Relative activity (%) (cellobiose 2-epimerase; metal salt 1 mM, None = 100): 1%
SMILES: [Cl-].[Cl-].[Zn+2] [ZnCl2]

SMILES: OC[C@H]1O[C@@H](O[C@H]2[C@H](O)[C@H](O)C(O)O[C@@H]2CO)[C@H](O)[C@@H](O)[C@H]1O (stereo partly drawn) [epilactose]
- Amount of short-chain fatty acid in the intestine [4]: increasing the amount of short-chain fatty acid in the intestine
- Calcium absorption in the small intestine [4]: promoting calcium absorption in the small intestine
- Plasma cholesterol level [4]: lowering the plasma cholesterol level

SMILES: O=C(CO)[C@@H](O)[C@@H](O)[C@H](O)CO [D-Tagatose]
- Content of isomerized saccharide in the reaction mixture (%): D-Galactose [1, 6]: 4.7%
- Content of isomerized saccharide in the reaction mixture (%): D-Talose [1, 6]: 5.2%
- Action [2]: ±
- Action of the enzyme on the saccharide [2]: slightly acted on

SMILES: [Cl-].[Cl-].[Co+2] [CoCl2]
- Relative activity (%) (cellobiose 2-epimerase): 101%
